The values that follow come from US20060025430A1, “Novel irreversible inhibitors of epidermal growth factor receptor tyrosine kinase and uses thereof for therapy and diagnosis” (priority 2003, published 2006).

pIC50: −log10 of the molar value. Entries after “also recorded” stand apart in the source; their conditions may differ.

Data set [1] addresses T1, EGFR-TK (Homo sapiens, UniProt P00533).
T1 construct: The supernatant, which contained the EGFR, was collected and frozen; endogenous in cells; host or cells: A431 cells (A1: Triton X-100 lysate captured on mAb108; A2: intact cells)
Description: EGFR-TK autophosphorylation inhibition in intact A431 cells (irreversibility assay, Western blot). In kind it is cell-based. Particulars: for nature of binding to the receptor (irreversibility): intact A431 cells, inhibition 8 hours post incubation. On the procedure: A431 cells (5×10^5) were seeded in 6-well plates and grown for 24 hours to about 90% confluence in DMEM (high glucose) containing 10% fetal calf serum (FCS) and antibiotics at 37° C. The cells were then exposed to serum-free medium, at 37° C., for 18 hours.
[…] The medium was replaced thereafter with an inhibitor/FCS-free medium and the cells were divided into two groups: cells of the first group were immediately stimulated with EGF (20 ng/ml) for 5 minutes and then washed with PBS, while cells of the second group were incubated for additional 8 hours, at 37° C. During the 8 hours period, the medium was changed three times (after 2, 4 and 8 hours). After the post-incubation period, the cells of the second group were stimulated with EGF (20 ng/ml) for 5 minutes and then washed with PBS.
Identical protein amounts from each lysate sample were loaded onto polyacrylamide gel (6% or 10%), separated by electrophoresis (Hoefer Pharmacia Biotech Inc., San Francisco, USA) and transferred to nitrocellulose membrane (power supply: EPS 500/400, Amersham Pharmacia Biotech; nitrocellulose extra blotting membranes: Sartorius AG, Goettingen, Germany). A standard high molecular weight solution was loaded as a reference. For visualization of molecular weight bands, the membrane was immersed in Ponceau reagent (0.05% Ponceau, 5% acetic acid) for a few minutes, and then washed twice with TTN (10 mM Tris pH 7.4, 0.2% TWEEN 20, 170 mM NaCl) and once with water. The membrane was blocked overnight in TTN containing 5% milk (1% fat) (blocking TTN) and incubated for 90 minutes with PY20 antiphosphotyrosine antibody (Santa Cruz Biotechnology Inc., Santa Cruz, USA) diluted 1:2,000 in blocking TTN. The membrane was then washed with TTN (3×5 minutes), incubated for 90 minutes with a horseradish peroxidase-conjugated secondary antibody (Goat anti-mouse IgG H+L, Jackson ImResearch Laboratories, Inc., diluted 1:10,000 in blocking TTN), and finally washed again with TTN (3×5 minutes).
After the incubation, the media was replaced with inhibitor/FCS-free media and the inhibition effect was measured either immediately thereafter or after 8 hours post incubation.
For orientation: In western blotting, separated proteins are transferred to a membrane and probed.

In data set [2] the target is T1, EGFR-TK. Description: EGFR-TK autophosphorylation inhibition in A431 cell lysate (ELISA). In kind it is biochemical. Particulars: read-out: A431 lysate IC50 app. On the procedure: All the following incubations were performed at room temperature and with constant shaking. […] The final volume for each well was 150 μl.
In this step the temperature was kept at 26° C. and the plate was under constant shaking. The incubation with ATP/MnCl2 was for 5 minutes.
Afterward, polyclonal anti-phosphotyrosine serum (Sugen, Inc.) was added (dilution of antibody in TBST containing 5% milk). The incubation was for 45 minutes.
Background: ELISA stands for enzyme-linked immunosorbent assay.

A short description of data set [3]: Challenge reaction with reduced glutathione (HPLC conversion to conjugates). In kind it is physicochemical. The protocol: Standard solutions were prepared by dissolving compound 5, Compound 6 and {4-[(3,4-dichloro-6-fluorophenyl)amino]quinazol ine-6-yl}acrylamide (0.0146 mmol) in 1.75 ml of THF: MeOH (1:2) and glutathione (18 mg, 0.0586 mmol) in 0.5 ml of water. A 300 μL aliquot of the quinazoline standard solution (2.5 μmol) was diluted with 689 μL of THF:MeOH:H2O (1:2:1), after which 11 μL (1.25 μmol) of glutathione solution and 5.22 μL (30 μmol) of N,N′-diisopropylethylamine were added. Conversions of the quinazolines and formation of conjugates at different time points were measured by HPLC using RP (3.9×300 mm) column (mobile phase of acetonirile and acetate buffer 0.1 M (2:3) at a flow rate of 1 ml/min was used herein). The glutathione conjugates were further detected by MS.
As discussed hereinabove, EGFR blockade by irreversible inhibitors is due to the nucleophilic attack of the sulfhydryl group of Cys-773 at the receptor's ATP binding pocket on the reactive chemical group of the EGFR targeted inhibitor. In order to evaluate the chemical reactivity of the novel irreversibly EGFR inhibitors decribed herein, the degree of reactivity of the inhibitors towards the sulfhydryl group of reduced glutathione (GSH) as a nucleophile was tested. Thus, Compound 5, Compound 6 and {4-[(3,4-dichloro-6-fluorophenyl)amino]quinazoline-6-yl}acrylamide were dissolved in THF: MeOH: H2O (1:2:1), and were reacted at room temperature with half an equivalent of reduced glutathione in the presence of 12 equivalents of N,N-diisopropylethylamine. Identical aliquots of the reaction mixtures were taken at various time points and injected into reversed-phase HPLC in order to determine the conversion-rate of the various compounds into glutathione-conjugates. The characteristics of the products were determined using MS.
A study of the reaction rate as a function of the temperature was also performed. Thus, the reaction ws performed at various temperatures ranging from 0° C. and 60° C. The following activation parameters were generated: For {4-[(3,4-dichloro-6-fluorophenyl)amino]quinazoline-6-yl}acrylamide: Ea=5.24 kCalmol^−1, ΔH^#25° C.=4.64 kCalmol^−1 and ΔS^#25° C.=−61.24 Calmol^−1K^−1. For compound 5: Ea=11.4 kCalmol^−1, ΔH^#25° C.=10.80 kCalmol^−1 and ΔS^#25° C.=−41.29 Calmol^−1K^−1.
The reaction rate was calculated using the following rate equation: [formula] kobs=Ae^−Ea/RT

The next data set has as its target T2, EGFR (Homo sapiens, UniProt P00533).
T2 construct: expressed in transfected cells; host or cells: NIH3T3 (DHER14 cells)
Description: Selective-inhibition assay in DHER14 cells (receptor phosphotyrosine, Western blot). In kind it is cell-based. Particulars: DHER14 cells expressing EGFR, 1 hour incubation, EGF stimulation. On the procedure:
(§1) NIH3T3 cells transformed with either the EGFR (DHER14 cells), with the HER1-HER2 chimera (CSH12 cells) or with the PDGFR (NIH/PDGFR cells), decribed by Lee et al.; 1989, Honegger et al., 1988; and Shawver et al. 1997, and A431 human epidermoid vulval carcinoma cells were grown in Dulbecco's modified Eagle's medium (DMEM) (Biological industries, Kibbuts Beit Haemek, Israel) supplemented with 10% fetal calf serum and antibiotics (penicillin […], streptomycin 100 mg/liter) at 37° C. in 5% CO2.
(§2) Selective-inhibition assay: CSH12, DHER14 and […] cells, expressing either the HER1-HER2 chimera, EGFR or PDGFR, respectively, were used for the determination of inhibitory selectivity. Cells (7.5×10^4) were grown in 6-well plates (35 mm diameter, Nalge Nunc) for 24 hours and then incubated in 0.25% FCS-containing medium for an additional 24 hours to about 90% confluence. Duplicate sets of cells were treated with the tested compounds at varying concentrations for 1 hour. The final concentration of the vehicle in the medium was 0.05% DMSO, 0.1% EtOH. After removal of the inhibitor from the medium, PBS wash (×2) and addition of 0.25% serum-containing medium to the wells, the cells were stimulated with either 20 ng/mL human EGF for 5 minutes (CSH12 and DHER14 cells) or 50 ng/ml human PDGFββ for 10 minutes ([…] cells) at 37° C. […]

For a further data set, the target named is PDGFR (Homo sapiens, UniProt P09619). In words: Selective-inhibition assay in […] cells (receptor phosphotyrosine, Western blot). To be noted: […] cells expressing PDGFR, 1 hour incubation, PDGFββ stimulation. In kind it is cell-based. The protocol:
as §1, §2

Data set [4] is described as follows: Challenge reaction with reduced glutathione (HPLC conversion to conjugates). In kind it is physicochemical. Particulars: even at temperatures exceeding 100° C.
[5] abbreviates: Intact A431 cells IC50 range (1 hr post incubation with inhibitor), 1 hour incubation with inhibitor, medium replaced, EGF stimulation immediately.
Where [6] appears, read: Intact A431 cells IC50 range (8 hr post incubation with inhibitor), 1 hour incubation, then 8 hours in inhibitor-free medium before EGF stimulation.

T1 sequence (P00533 25-1210): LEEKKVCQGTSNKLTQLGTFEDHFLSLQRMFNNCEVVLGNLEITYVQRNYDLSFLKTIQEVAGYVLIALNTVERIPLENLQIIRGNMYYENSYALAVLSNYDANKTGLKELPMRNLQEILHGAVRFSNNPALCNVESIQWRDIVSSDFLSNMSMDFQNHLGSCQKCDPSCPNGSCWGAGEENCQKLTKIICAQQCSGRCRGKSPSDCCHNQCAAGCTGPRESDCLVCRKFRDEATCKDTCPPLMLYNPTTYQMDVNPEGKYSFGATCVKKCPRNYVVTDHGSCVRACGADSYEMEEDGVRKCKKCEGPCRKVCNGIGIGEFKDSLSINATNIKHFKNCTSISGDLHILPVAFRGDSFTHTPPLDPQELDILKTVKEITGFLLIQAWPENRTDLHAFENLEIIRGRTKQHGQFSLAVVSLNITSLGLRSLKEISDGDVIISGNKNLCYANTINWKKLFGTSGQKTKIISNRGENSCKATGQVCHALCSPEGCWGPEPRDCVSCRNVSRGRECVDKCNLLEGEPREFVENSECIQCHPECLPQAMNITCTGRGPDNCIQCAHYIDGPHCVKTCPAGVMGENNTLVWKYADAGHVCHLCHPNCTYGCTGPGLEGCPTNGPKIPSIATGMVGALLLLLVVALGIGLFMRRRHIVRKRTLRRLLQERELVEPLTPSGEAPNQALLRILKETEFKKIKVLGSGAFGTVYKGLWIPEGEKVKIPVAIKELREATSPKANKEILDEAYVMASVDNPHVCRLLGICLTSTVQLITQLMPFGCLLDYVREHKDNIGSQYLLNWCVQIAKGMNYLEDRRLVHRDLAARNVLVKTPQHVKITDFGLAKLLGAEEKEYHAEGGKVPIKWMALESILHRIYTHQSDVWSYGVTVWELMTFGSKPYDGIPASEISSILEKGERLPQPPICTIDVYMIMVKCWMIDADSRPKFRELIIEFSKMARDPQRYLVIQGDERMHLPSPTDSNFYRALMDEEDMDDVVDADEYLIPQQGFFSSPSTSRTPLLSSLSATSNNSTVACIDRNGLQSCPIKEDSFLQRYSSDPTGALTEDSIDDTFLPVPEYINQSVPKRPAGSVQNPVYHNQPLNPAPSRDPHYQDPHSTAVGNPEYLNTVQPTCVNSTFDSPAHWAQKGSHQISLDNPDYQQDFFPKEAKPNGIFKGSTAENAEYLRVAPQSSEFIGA
Chain of PDGFR (P09619 whole entry): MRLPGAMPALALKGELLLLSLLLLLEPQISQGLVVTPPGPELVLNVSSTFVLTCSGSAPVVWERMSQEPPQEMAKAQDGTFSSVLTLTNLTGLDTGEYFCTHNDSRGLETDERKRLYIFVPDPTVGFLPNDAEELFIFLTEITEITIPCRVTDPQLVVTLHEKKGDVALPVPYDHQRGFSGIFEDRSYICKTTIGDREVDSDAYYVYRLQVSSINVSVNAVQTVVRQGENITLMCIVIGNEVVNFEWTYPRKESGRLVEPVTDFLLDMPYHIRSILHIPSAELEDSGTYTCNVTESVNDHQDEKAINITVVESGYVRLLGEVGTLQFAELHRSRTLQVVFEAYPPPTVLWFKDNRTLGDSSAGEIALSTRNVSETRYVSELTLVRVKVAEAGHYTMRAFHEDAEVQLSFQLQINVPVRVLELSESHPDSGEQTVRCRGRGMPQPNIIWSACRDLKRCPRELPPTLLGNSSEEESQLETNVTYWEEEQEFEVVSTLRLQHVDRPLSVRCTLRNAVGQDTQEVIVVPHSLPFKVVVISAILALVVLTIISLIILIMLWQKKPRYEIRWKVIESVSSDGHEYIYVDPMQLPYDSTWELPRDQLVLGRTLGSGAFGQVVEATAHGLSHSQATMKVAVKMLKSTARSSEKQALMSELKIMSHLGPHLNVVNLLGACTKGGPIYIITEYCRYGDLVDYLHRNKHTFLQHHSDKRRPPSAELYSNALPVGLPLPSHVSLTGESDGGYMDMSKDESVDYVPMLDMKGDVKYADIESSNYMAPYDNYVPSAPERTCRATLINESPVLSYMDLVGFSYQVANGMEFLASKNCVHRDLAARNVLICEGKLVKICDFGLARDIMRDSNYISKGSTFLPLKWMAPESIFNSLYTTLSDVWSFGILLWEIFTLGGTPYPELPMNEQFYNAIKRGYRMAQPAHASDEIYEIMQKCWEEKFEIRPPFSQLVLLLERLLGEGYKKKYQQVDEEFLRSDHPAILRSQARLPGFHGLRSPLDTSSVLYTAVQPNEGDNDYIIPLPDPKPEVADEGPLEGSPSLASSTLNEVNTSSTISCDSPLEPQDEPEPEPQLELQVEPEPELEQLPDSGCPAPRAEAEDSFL
T2 sequence (P00533 25-1210): as the sequence (P00533 25-1210) above

Take `COCC(=O)Nc1ccc2ncnc(Nc3cccc(I)c3)c2c1` [Compound 4, N-{4-[(3-iodophenyl)amino]-quinazolin-6-yl}-2-methoxyacetamide]: the “nature of binding to the receptor (irreversibility)” value at EGFR-TK [1] is recorded as “partial irreversible”.
Turning to `COCC(=O)Nc1ccc2ncnc(Nc3cccc(I)c3)c2c1` [drawing 18], the pIC50 at EGFR-TK [2] is 7.19; at EGFR-TK [1] (setting [5]), 4.70 to 6.00; at EGFR-TK [1] (setting [6]), below 4.10.
`COCC(=O)Nc1ccc2ncnc(Nc3cccc(Br)c3)c2c1` [Compound 2, N-{4-[(3-bromophenyl)amino]-quinazolin-6-yl}-2-methoxyacetamide] yielded a melting point of 190 to 191 °C.
On to `O=C(CCl)Nc1ccc2ncnc(Nc3cccc(Br)c3)c2c1` [Compound 1, N-{4-[(3-bromophenyl)amino]-quinazolin-6-yl}-2-chloroacetamide], for which the melting point is above 300 °C.
Take `C=CC(=O)Nc1ccc2ncnc(Nc3cc(Cl)c(Cl)cc3F)c2c1` [drawing 14]: the pIC50 is 10.43 at EGFR-TK [2] (apparent IC50, ELISA, 5 μM ATP/5 mM MnCl2, average of four dose-response curves); 7.30 to 8.30 against EGFR-TK [1] (setting [5]); 7.30 to 8.30 at EGFR-TK [1] (setting [6]).
For the molecule `O=C(CCl)Nc1ccc2ncnc(Nc3cc(Cl)c(Cl)cc3F)c2c1` [drawing 19], the figures for the pIC50 on EGFR-TK [2], against EGFR-TK [1] (setting [5]) and against EGFR-TK [1] (setting [6]) were 8.26, 7.70 to 9.00 and 7.70 to 9.00, respectively.
For `C=CC(=O)Nc1ccc2ncnc(Nc3cc(Cl)c(Cl)cc3F)c2c1` [Compound A, N-{4-[(3,4-dichloro-6-fluorophenyl)amino]quinazoline-6-yl}acrylamide, reference compound], in data set [3] (25° C.), the “ΔH^# 25° C. of reaction with reduced glutathione” value amounted to 4.64 kCalmol^−1 and the “ΔS^# 25° C. of reaction with reduced glutathione” value is on record as −61.24 Calmol^−1K^−1. Besides, the “reaction rate constant with reduced glutathione” value in data set [3] (room temperature, THF:MeOH:H2O (1:2:1), half an equivalent GSH, 12 equivalents N,N-diisopropylethylamine) turned out to be 0.0001 M/min. Besides, in data set [3] (temperatures from 0° C. to 60° C.), the “activation energy Ea of reaction with reduced glutathione” value was 5.24 kCalmol^−1.
Consider `O=C(CCl)Nc1ccc2ncnc(Nc3cccc(I)c3)c2c1` [Compound 3, N-{4-[(3-iodophenyl)amino]-quinazolin-6-yl}-2-chloroacetamide], for which the melting point is above 300 °C.
The molecule `COCC(=O)Nc1ccc2ncnc(Nc3cc(Cl)c(Cl)cc3F)c2c1` [Compound 6, N-{4-[(4,5-Dichloro-2-fluoro-phenyl)amino]-quinazolin-6-yl}-2-methoxyacetamide] returned a melting point of 204 to 206 °C. Moreover, the “nature of binding to the receptor (irreversibility)” value on EGFR-TK [1] is listed as “partial irreversible”. Besides, on EGFR, the pIC50 is below 6.60. Moreover, the pIC50 against PDGFR is below 6.00. In addition, the “change in the reaction rate with GSH with temperature” value in data set [4] is given as “no change in the reaction rate; also recorded: could not be detected”.
Regarding `COCC(=O)Nc1ccc2ncnc(Nc3cc(Cl)c(Cl)cc3F)c2c1` [drawing 20], the figures for the negative logarithm of the IC50 (pIC50) on EGFR-TK [2] and at EGFR-TK [1] (setting [6]) were 6.95 and 4.30 to 5.00, respectively.

As usually defined, the pIC50 is the IC50 on a negative log10 scale, so that one unit is a factor of ten. What is called melting point is the temperature of the solid-liquid transition.
